Test results as given in US20110028504A1, “Formulation of radioprotective alpha beta unsaturated aryl sulfones” (ONCONOVA THERAPEUTICS, INC., priority 2005, published 2011).

Assays:
Assay type in all cases: physicochemical
[1] = Saturated solubility in different solvent systems
[2] = pH solubility testing in McIlvaine type buffer; conditions: thermodynamic from solid, read-out: Observed Solubility (C5)
Method: The solubility of ON.1210.Na salt is tested in McIlvaine type buffer with 0.1 M ionic strength. The buffers are prepared using the recipe mentioned in Table 17 The final pH is adjusted using 0.1N sodium hydroxide or 0.1N hydrochloric acid until the pH is within ±0.1 pH units of the target pH. The pKa of the drug calculated from pH-solubility study is depicted in Table 19. The solubility of the ON.1210.Na salt is tested in a McIlvaine type buffer with 0.1 M ionic strength. The buffers are prepared using the recipe mentioned in Table 16 using various volumes of 0.15 M citric acid monohydrate, and 0.2 M sodium phosphate dibasic, 12 hydrate. The final pH is adjusted using 0.1N sodium hydroxide or 0.1N hydrochloric acid until the pH is within ±0.1 pH units of the target pH. The samples for the pH solubility study are prepared by adding 10-20 mg of ON.1210.Na salt to a 4 mL vial. Then 1 mL of the appropriate pH buffer is added to the vial. The solution is mixed on a vortex genie for approximately 30 seconds. If the solution looks clear, additional drug is added. No additional drug is added to solutions which appear to be clear at a concentration of greater than 50 mg/mL. The study is done in duplicate. Once the solutions are prepared, the initial pH of the samples are measured. The solutions are then protected from light, and placed on a shaker. The solutions are agitated for 24 to 96 hours at ambient conditions. The vials are then removed from the orbital shaker, and the final pH of the solutions is measured for each sample. The solutions are then filtered, and analyzed by HPLC.

[3] = Determination of pKa from saturated solubility at different pH
Method: The pKa of the weakly acidic drug is determined from pH-solubility data using the equation provided below.
Where Cs=observed solubility and C0=intrinsic solubility of the compound,
Since the drug is weakly acidic, its intrinsic solubility is assumed to be the solubility at a very low pH (pH=4) where the contribution due to ionization is minimal.

[4] = Octanol-water partition coefficient; conditions: 25° C., n-octanol and HPLC water, triplicate; pH of the aqueous phase 8.1
Method: The octanol-water partition coefficient of the drug is determined at 25° C. Equal volumes (10 ml) saturated solution of ON.1210.Na in n-octanol and HPLC water are equilibrated at 25° C. in a shaking water bath for 48 hours. The pH of the aqueous phase is also determined. At a predetermined time, a known volume of both the organic and aqueous phase is collected via a filtered needle. Subsequently, the concentration of ON.1210.Na is determined by HPLC after adequate dilution.
The octanol-water partition coefficient of the drug is determined at 25° C. using equal volumes (10 ml) of saturated solution of ON.1210.Na in n-octanol and HPLC water. Similarly, the partition coefficient is determined using simulated gastric and intestinal fluid without enzymes. The octanol-water partition coefficient is determined using the following equation: […]

[5] = Solid-state stability at 75° C.
Method: The stability of ON.1210.Na in the solid state is determined by exposing the drug at 75° C. over a prolonged time. The sample is crimped in a 10 mL injection vial and kept at the above temperature. The sample is collected after 15 days and one month and reconstituted with diluting solution and its concentration is determined by HPLC. Appearance of any additional peak in the chromatogram is also noted. A control sample is represented by ON.1210.Na not exposed to 75° C. and reconstituted to a known concentration with diluting solution.

[6] = Forced degradation studies (HPLC)
Method: In order to establish the specificity of this assay procedure several forced degradation studies were conducted as follows:
The ON.1210.Na sample is prepared in HPLC grade water at a concentration of 200 μg/mL. All the peaks detected in the chromatogram at time zero are noted with their corresponding retention time and absolute peak areas. The solution is crimped into a 5 mL glass vial and autoclaved. After autoclaving, the sample is filtered through a 0.1μ filter and 20 μL of the filtered sample is analyzed. The absolute peak area of the peak after autoclaving and appearance of any additional peaks due to possible degradation is shown in Table 9.
One ml of the 500 μg/mL standard solution is mixed with 1 mL of 0.1 N HCl. The sample is cloudy in appearance and filtered prior to HPLC analysis. All the peaks detected in the chromatogram at time zero are noted with their corresponding retention time and absolute peak areas. The solution is crimped into a 5 mL glass vial and autoclaved. After autoclaving, the sample is filtered through a 0.1μ filter and […] of the filtered sample is analyzed by HPLC. The absolute peak areas of the peak after autoclaving, and appearance of any other peaks due to possible degradation are noted.
One ml of the 500 μg/mL standard solution is mixed with 1 mL of 0.1 N NaOH. The sample is clear in appearance. All the peaks detected in the chromatogram at time zero are noted with their corresponding retention time and absolute peak area. The solution is crimped into a 5 mL glass vial and autoclaved. After autoclaving, the sample is filtered through a 0.1μ filter and 20 μL of the filtered sample is analyzed. The absolute peak area of the peaks after autoclaving and appearance of any other peaks due to possible degradation are noted.
A solid drug sample (ON1210), after autoclaving in a crimped vial, is also evaluated for any degradation using the developed HPLC method. The sample, after autoclaving, is used to make a standard solution of 400 μg/mL and injected onto HPLC.
In this study, 30% of the hydrogen peroxide is diluted to 3% (v/v) with water. One ml of the 500 μg/mL standard solution is mixed with 1 mL of 3% hydrogen peroxide; then incubated at 50° C. over a period of two hours. All the peaks detected in the chromatogram at different time points are noted with their corresponding retention time and absolute peak areas. The chromatograms are run for 30 minute periods.

## O=C([O-])c1ccc(/C=C/S(=O)(=O)Cc2ccc(Cl)cc2)cc1.[Na+] [ON.1210.Na, (E)-4-Carboxystyryl-4-chlorobenzylsulfone, Sodium Salt]
[1]; 0.25% Tween 80 in phosphate buffer, pH of solution 8.45
  Solubility: 9500 µg/mL
[1]; 0.5% Tween 80 in phosphate buffer, pH of solution 8.41
  Solubility: 9800 µg/mL
[1]; 1% Tween 80 in phosphate buffer, pH of solution 8.45
  Solubility: 8900 µg/mL
[1]; 2% Tween 80 in phosphate buffer, pH of solution 8.39
  Solubility: 9700 µg/mL
[1]; 2% tween 80 in water, pH of solution 8.78
  Solubility: 9000 µg/mL
[1]; 10% cyclodextran, 24 hours of equilibration, pH of solution 8.14
  Solubility: 46000 µg/mL
[1]; 10% cyclodextran, 48 hours of equilibration, pH of solution 8.41
  Solubility: 41000 µg/mL
[1]; 50% PEG400:water, pH of solution 7.53
  Solubility: 40000 µg/mL
[1]; 50:50 PEG400:ethanol, pH of solution 8.46
  Solubility: 37000 µg/mL
[1]; PEG300 (IP10 g/kg), pH of solution 8.21
  Solubility: 52040 µg/mL
[2]; pH 4, aqueous buffer
  Solubility: 0.154 µg/mL
[2]; pH 5, aqueous buffer
  Solubility: 37.9 µg/mL
[2]; pH 6, aqueous buffer
  Solubility: 715 µg/mL
[2]; pH 7.4, aqueous buffer
  Solubility: 11100 µg/mL
[2]; pH 8, aqueous buffer
  Solubility: 16800 µg/mL
[2]; pH 9, aqueous buffer
  Solubility: 23300 µg/mL
[3]; aqueous buffer, thermodynamic from solid, assumed to be the solubility at pH 4, read-out: intrinsic solubility
  Solubility: 0.154 µg/mL
[3]; calculated from solubility at pH 5
  pKa: 2.61
[3]; calculated from solubility at pH 6
  pKa: 2.33
[3]; calculated from solubility at pH 7.4
  pKa: 2.54
[3]; calculated from solubility at pH 8
  pKa: 2.96
[3]; calculated from solubility at pH 9
  pKa: 3.82
[4]
  octanol:water partition coefficient: 1.28-2.87
[5]
  accelerated solid-state stability of the bulk drug substance: no evidence of degradation
[6]; 200 μg/mL in water
  stability of the aqueous solution on autoclaving: stable under autoclaving conditions
[6]; 0.05N NaOH, autoclaving
  degradation under alkaline condition: Significantly more degradation is present under alkaline condition
[6]; in presence of strong acid (0.05N HCl)
  degradation upon autoclaving: less than 10%
[6]; solid drug autoclaved in a crimped vial, then 400 μg/mL by HPLC
  stability of the solid on autoclaving: stable under the autoclaving conditions
